The values that follow come from patent US5712148A (Synaptic Pharmaceutical Corporation, priority 1995, dated 1998).

Several values for one entry are separate records, joined by “and”; a condition that tells them apart may be missing. Equal values may be shown once. Read-outs that look alike come from different tables or passages of the source.

In assay [1] the target is T1, hS1a (human betaine/GABA transporter, hBGT) (Homo sapiens, UniProt P48065).
T1 sequence (P48065 1-614 C10Y): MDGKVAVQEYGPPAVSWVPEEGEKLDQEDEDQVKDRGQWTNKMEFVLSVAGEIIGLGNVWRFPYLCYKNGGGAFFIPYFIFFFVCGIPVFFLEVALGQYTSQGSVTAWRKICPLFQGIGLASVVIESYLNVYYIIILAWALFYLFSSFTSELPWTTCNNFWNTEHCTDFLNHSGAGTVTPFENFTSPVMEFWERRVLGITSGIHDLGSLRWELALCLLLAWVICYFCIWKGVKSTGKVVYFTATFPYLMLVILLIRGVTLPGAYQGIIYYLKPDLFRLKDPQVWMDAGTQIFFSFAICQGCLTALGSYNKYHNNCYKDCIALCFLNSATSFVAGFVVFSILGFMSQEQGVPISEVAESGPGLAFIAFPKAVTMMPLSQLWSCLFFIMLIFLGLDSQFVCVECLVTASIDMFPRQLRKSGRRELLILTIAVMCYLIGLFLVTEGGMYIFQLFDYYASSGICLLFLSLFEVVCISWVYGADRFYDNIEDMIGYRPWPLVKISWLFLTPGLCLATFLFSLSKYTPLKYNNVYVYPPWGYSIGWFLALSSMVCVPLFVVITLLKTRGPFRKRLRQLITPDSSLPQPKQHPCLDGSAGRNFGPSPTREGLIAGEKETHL
The assay can be described thus: Inhibition of specific [^3 H]GABA uptake in COS7 (transient) or LMtk- (stable; hS1a-3) cells expressing hS1a. The class given is cell-based. Further details: Translation of a long open reading frame predicts a protein of 614 amino acids with 12 putative transmembrane domains; expressed in transfected cells. To be noted: for inhibition at 100 µM / inhibition at 500 µM: read-out: % Inhibition of specific [^3 H]GABA uptake; for inhibitory potency at hS1a in words: inhibition of [^3 H]GABA uptake; for IC50: estimated from data for one or two concentrations of inhibitor (Table 1), not corrected for [^3 H]GABA concentration; for potency at hS1a vs dog and mouse transporters, in words: comparison across clones. As to the method: (§1) Transport was also measured in suspension. The details of this method will described in detail in a subsequent publication (Borden et al., manuscript in preparation). Briefly, transient (COS-7) or stable (LM) transfectants were removed from culture plates with trypsin/EDTA, and transferred to suspension culture. The cells were grown in a temperature-controlled shaking incubator, using a medium containing methylcellulose. To measure transport the cells were washed by centrifugation, and resuspended in HBS. The assay was performed in 96-well microtiter plates (total volume=0.25 ml/well). […] Cell-associated radioactivity retained on the filters was determined by scintillation counting.

For assay [2], the system named is mouse betaine/GABA transporter. To be noted: data from Lopez-Corcuera et al., 1992; estimated from one or two concentrations of inhibitor; cited from earlier work.
The target in assay [3] is T1, hS1a (human betaine/GABA transporter, hBGT). The note with it: in words. As to the method: as §1
(§2) For example, the dog and mouse clones were expressed in oocytes, whereas we employed COS-7 or LMtk^- fibroblasts for the human clone. Additionally, we measured transport for 10 minutes at 37° C., while the dog clone was assayed for 30 minutes at 25° C. […] Another important factor is our use of suspension cultures.

The target in assay [4] is T2, GAT-2 (Rattus norvegicus, UniProt P31646).
T2 sequence (P31646 1-602): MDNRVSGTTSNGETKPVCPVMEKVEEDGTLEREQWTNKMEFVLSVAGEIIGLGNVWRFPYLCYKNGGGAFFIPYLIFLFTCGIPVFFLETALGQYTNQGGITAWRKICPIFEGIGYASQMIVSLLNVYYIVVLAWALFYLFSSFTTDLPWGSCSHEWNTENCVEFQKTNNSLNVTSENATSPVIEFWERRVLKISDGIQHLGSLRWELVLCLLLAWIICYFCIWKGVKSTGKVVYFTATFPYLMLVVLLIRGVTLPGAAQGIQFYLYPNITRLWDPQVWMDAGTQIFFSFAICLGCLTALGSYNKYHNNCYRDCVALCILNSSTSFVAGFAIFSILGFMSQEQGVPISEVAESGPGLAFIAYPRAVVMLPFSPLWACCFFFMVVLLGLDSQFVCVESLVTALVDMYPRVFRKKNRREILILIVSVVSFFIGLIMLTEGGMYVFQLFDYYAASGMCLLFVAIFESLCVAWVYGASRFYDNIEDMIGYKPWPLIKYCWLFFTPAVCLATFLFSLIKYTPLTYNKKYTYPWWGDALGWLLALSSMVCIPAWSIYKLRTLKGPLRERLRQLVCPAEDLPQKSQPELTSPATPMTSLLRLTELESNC
The assay can be described thus: Affinity of GABA at GAT-2, suspension vs attached cells. To be noted: Borden, unpublished. The class given is cell-based. From the text:
[…]. […] Another important factor is our use of suspension cultures. […]. Liu et al., 1992a).

The target of assay [5] is T3, GAT-3 (Rattus norvegicus, UniProt P31647).
T3 sequence (P31647 1-627): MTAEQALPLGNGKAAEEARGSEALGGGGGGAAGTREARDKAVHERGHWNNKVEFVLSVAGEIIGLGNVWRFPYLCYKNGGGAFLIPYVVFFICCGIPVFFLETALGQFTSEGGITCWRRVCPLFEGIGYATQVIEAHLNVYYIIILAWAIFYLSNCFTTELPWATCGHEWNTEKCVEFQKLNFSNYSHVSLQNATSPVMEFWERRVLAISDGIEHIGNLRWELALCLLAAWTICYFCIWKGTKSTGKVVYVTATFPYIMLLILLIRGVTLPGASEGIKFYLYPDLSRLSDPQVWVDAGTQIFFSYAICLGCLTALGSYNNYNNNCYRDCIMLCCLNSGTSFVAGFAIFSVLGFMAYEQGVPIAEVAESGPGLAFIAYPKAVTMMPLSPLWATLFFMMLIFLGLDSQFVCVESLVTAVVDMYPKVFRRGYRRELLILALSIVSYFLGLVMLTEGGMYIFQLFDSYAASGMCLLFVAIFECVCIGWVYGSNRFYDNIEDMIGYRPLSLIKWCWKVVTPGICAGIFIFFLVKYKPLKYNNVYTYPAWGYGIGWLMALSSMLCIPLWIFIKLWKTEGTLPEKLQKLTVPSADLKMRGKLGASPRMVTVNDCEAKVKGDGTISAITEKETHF
The assay can be described thus: Affinity of GABA at GAT-3, suspension vs attached cells. The class given is cell-based. To be noted: Borden, unpublished. As to the method:
as §2

Assay [6] concerns dog betaine/GABA transporter. To be noted: Yamauchi et al., 1992, cited from earlier work.
Assay [7] has as its system dog betaine/GABA transporter. The note with it: data from Yamauchi et al., 1992; estimated from one or two concentrations of inhibitor; cited from earlier work.
Assay [8] has as its system mouse betaine/GABA transporter. The assay can be described thus: Inhibition at mouse betaine/GABA transporter clone (literature comparison). The class given is cell-based. The note with it: comparison across clones. As to the method: as §2

On to `NCC[C@H](N)C(=O)O` [L-DABA, L-(2,4)diaminobutyric acid], for which, in assay [1], the inhibition at 100 µM was 24 ± 24%.
`N[C@@H]1CCC[C@H](C(=O)O)C1` (relative stereo) [ACHC, cis-3-aminocyclohexanecarboxylic acid]: in assay [1], the “inhibitory potency at hS1a in words” value is given as “weak inhibitors” and the inhibition at 100 µM was 0%.
With `C[N+](C)(C)CC(=O)O` [betaine], the 50% inhibitory concentration (IC50) is 206 µM in assay [2]; 258 µM and 150 to 250 µM in assay [1] (read-out: IC50 (human)). Also, the inhibition at 500 µM in assay [1] was 66 ± 15%.
Turning to “hydroxynipecotic acid [OH-nipecotic acid]”, the IC50 is more than 1000 µM in assay [1] (10 min, listed as Hydroxynipecotic acid, 10 min, read-out: IC50 (human)) and 1150 µM in assay [1] (10 min, read-out: IC50 (human)). Besides, the “inhibitory potency at hS1a in words” value in assay [1] is listed as “weak inhibitors”. The “% Inhibition of specific [^3 H]GABA uptake” value in assay [1] (inhibitor 100 μM, 50 nM [^3 H]GABA, 10 minutes, 37° C., mean ± SEM) was 8 ± 8%.
In the case of `O=C(O)C1=CCCNC1` [guvacine], the IC50 in assay [2] is 2800 µM. Besides, in assay [1] (read-out: IC50 (human)), the half-inhibitory concentration (IC50) was 1900 µM. For the same compound, in assay [1], the “inhibitory potency at hS1a in words” value is “weak inhibitors” and the inhibition at 100 µM is 5 ± 5%.
Regarding `NCCCC(=O)O` [GABA, γ-aminobutyric acid], in assay [3], the “affinity of hBGT for GABA vs other GABA transporters” value is recorded as “lower than that of other GABA transporters”. Further, in assay [4], the “increase in affinity of GABA in suspension vs attached cells (GAT-2)” value is listed as “about 10 fold”. Also, the “increase in affinity of GABA in suspension vs attached cells (GAT-3)” value in assay [5] is on record as “about 10 fold”. Also, the “higher affinity of the transporter for GABA than for betaine” value in assay [6] is 4 fold. Also, the “affinity for GABA vs betaine, in words” value in assay [6] (betaine transporter cloned from MDCK dog kidney cells) was “higher affinity for GABA than for betaine”.
As for `O=C(O)C1CCCNC1` (centres unmarked) [nipecotic acid], in assay [7], the IC50 is 4700 µM. In addition, in assay [1], the “potency at hS1a vs dog and mouse transporters, in words” value was “more potent at hS1a than at either of the other two transporters”; the inhibition at 100 µM is 34 ± 19%.
For the compound `NCCC(=O)O` [β-alanine], the IC50 was 2400 µM in assay [7]; 1900 µM in assay [2]; 138 µM and 150 to 250 µM in assay [1] (read-out: IC50 (human)). In addition, the “potency at hS1a vs dog and mouse transporters, in words” value in assay [1] is reported as “more potent at hS1a than at either of the other two transporters”. In addition, the inhibition at 100 µM in assay [1] is 42 ± 22%.
Consider `O=C(CCc1ccc(O)cc1)c1c(O)cc(O)cc1O` [phloretin], for which the “potency at mouse BGT vs dog or human clones, in words” value in assay [8] is given as “more potent at the mouse BGT than at the dog or human clones”. Also, the IC50 was 200 µM in assay [7], 37 µM in assay [2] and 258 µM in assay [1] (read-out: IC50 (human)). In addition, the inhibition at 500 µM in assay [1] is 66%.
`Cc1ccsc1C(=CCCN1CCC[C@@H](C(=O)O)C1)c1sccc1C` [(R)-Tiagabine]: in assay [1], the “inhibitory potency at hS1a in words” value is on record as “weak inhibitors” and the inhibition at 100 µM is 12 ± 7%.
Consider `C=C[C@H]1C[N@@]2CC[C@H]1C[C@@H]2[C@@H](O)c1ccnc2ccc(OC)cc12` [quinidine], for which the IC50 in assay [2] was 49 µM. Moreover, in assay [1] (IC50 (human)), the IC50 is 488 µM and ~50 µM. Moreover, in assay [1], the inhibition at 100 µM was 92% and the inhibition at 500 µM was 85%.

As a reminder, the inhibition is the change of the read-out against control, counted positive when it falls. What is called IC50 is the point on the concentration scale where inhibition reaches its midpoint.
